The first assay has as its target T1, human Nav1.7 (Homo sapiens, UniProt Q15858).
T1 construct: expressed in transfected cells; host or cells: HEK 293
As to the kind of experiment: IonWorks Quattro automated patch-clamp, inactivated state block of Nav1.7. Type of assay: cell-based.
Conditions: not given
The protocol: Compounds were tested on human Nav1.7 and Nav1.5 channels stably expressed in HEK 293 cells. […] Cells were sealed on a planar substrate using the Population Patch […] (PPC) technology. Electrical access was obtained using both nystatin and amphotericin. A double-pulse protocol was used for the determination of IC50 values for inactivated state block. Nav1.7 and Nav1.5 expressing cells were voltage clamped at −100 mV and −110 mV, respectively. A depolarizing prepulse to −10 mV (Nav1.7) or −30 mV (Nav1.5) for 1000 ms followed by a 10 ms repolarization to −100 mV (Nav1.7) or −110 mV (Nav1.5) was given to generate fractional channel inactivation of 50%, followed by a 10 ms test pulse to −10 mV (Nav1.7) or −30 mV (Nav1.5) to measure peak current in control conditions and after compound addition. The following recording solutions were used (mM). External: 150 NaCl, 2 CaCl2, 5 KCl, 1 Mg Cl2, 10 HEPES, 12 Dextrose; internal: 120 CsF, 30 CsCl, 10 EGTA, 5 HEPES, 5 NaF, 2 MgCl2.
For all electrophysiology experiments, offline analysis was used to determine percent inhibition as a function of drug concentration. IC50 values were determined by fitting to the Hill equation.
(In general: Patch clamp records ionic current or voltage across a cell membrane.)
T1 sequence (Q15858 whole entry): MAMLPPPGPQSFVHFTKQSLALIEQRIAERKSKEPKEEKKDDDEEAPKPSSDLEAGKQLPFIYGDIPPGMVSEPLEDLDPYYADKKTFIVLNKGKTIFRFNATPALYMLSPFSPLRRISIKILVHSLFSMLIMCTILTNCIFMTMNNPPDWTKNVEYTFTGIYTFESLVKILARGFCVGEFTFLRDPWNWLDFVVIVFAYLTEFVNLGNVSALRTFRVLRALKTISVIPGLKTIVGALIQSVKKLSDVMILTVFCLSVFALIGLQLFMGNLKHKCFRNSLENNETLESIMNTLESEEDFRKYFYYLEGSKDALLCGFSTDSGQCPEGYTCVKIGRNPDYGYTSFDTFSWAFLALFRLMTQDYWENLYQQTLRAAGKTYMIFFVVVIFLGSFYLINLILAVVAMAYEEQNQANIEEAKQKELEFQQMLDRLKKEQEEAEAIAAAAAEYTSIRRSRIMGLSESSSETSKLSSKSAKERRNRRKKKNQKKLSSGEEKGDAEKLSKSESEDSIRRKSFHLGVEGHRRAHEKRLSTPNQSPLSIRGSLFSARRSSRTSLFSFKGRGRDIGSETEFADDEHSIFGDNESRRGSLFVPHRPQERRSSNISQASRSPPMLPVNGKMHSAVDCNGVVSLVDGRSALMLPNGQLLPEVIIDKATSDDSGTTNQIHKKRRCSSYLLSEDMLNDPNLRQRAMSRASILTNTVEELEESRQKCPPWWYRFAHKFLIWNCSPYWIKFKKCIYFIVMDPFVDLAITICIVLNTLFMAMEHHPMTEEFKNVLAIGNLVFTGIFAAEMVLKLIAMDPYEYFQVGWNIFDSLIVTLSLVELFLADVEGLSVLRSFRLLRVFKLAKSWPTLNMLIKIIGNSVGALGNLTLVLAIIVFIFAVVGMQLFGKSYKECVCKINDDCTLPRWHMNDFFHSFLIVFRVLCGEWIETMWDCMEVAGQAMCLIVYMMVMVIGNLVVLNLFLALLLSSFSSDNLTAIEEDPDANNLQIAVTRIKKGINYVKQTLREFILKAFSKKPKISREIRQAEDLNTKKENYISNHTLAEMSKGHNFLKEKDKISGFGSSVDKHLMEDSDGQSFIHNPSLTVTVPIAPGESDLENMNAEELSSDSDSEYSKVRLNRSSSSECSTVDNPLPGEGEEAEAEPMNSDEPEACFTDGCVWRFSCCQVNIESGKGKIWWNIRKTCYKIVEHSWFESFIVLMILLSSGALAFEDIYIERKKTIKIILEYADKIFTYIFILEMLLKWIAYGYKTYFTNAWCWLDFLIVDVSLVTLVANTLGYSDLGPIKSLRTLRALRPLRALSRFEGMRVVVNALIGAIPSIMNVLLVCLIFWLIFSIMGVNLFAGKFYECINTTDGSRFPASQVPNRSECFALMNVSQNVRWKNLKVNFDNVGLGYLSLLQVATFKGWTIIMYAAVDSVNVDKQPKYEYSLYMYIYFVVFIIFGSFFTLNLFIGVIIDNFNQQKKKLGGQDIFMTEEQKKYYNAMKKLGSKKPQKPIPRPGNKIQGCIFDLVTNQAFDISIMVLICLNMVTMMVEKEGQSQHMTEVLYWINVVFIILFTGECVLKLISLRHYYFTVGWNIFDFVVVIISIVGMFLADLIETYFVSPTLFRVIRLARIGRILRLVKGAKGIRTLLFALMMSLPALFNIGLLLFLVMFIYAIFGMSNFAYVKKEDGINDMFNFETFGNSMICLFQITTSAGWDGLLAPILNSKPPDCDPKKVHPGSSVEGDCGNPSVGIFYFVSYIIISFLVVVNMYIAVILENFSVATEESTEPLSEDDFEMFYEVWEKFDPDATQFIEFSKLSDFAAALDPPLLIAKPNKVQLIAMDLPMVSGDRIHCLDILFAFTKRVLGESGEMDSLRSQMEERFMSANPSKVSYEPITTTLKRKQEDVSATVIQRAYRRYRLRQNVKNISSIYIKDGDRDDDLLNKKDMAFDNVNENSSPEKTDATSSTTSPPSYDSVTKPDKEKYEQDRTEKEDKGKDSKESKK
`CC(CCCNc1cc(F)c(S(=O)(=O)Nc2nccs2)cc1Cl)NC[C@@H]1CCCN1` (single isomer, unassigned) displayed an IC50 of 12 nM.

Still in this assay, the particulars now being: channels stably expressed in HEK 293 cells; double-pulse protocol, inactivated state block; read-out: potency for the Nav 1.7 sodium ion channel (IC50, as measured by IonWorks).
In the case of `CC(CCCNc1cc(F)c(S(=O)(=O)Nc2nccs2)cc1Cl)NC[C@@H]1CCCN1` (mixture of isomers), the IC50 is 11 nM.

For `O=S(=O)(Nc1nccs1)c1cc(Cl)c(NCCCCNC[C@H]2CCCCN2)cc1F` [Ex 1-05, 5-chloro-2-fluoro-4-[(4-{[(2R)-piperidin-2-ylmethyl]amino}butyl)amino]-N-1,3-thiazol-2-ylbenzenesulfonamide], the IC50 is 10 nM.

For `O=S(=O)(Nc1nccs1)c1cc(Cl)c(NCCCCNC[C@@H]2CCCN2)cc1F` [Ex 1-06, 5-chloro-2-fluoro-4-[(4-{[(2S)-pyrrolidin-2-yl-methyl]amino}butyl)-amino]-N-1,3-thiazol-2-yl-benzenesulfonamide], the IC50 is 15 nM. Same read-out and setting: as for `CC(C)(CN)NCCCCNc1cc(F)c(S(=O)(=O)Nc2nccs2)cc1Cl` [Ex 1-10, 4-({4-[(2-amino-1,1-dimethylethyl)amino]-butyl}amino)-5-chloro-2-fluoro-N-1,3-thiazol-2-yl-benzenesulfonamide], the figure is 28 nM.

In the case of `CN(CCN)CCCCNc1cc(F)c(S(=O)(=O)Nc2nccs2)cc1Cl` [Ex 1-15, 4-({4-[(2-aminoethyl) (methyl)amino]butyl}amino)-5-chloro-2-fluoro-N-1,3-thiazol-2-ylbenzenesulfonamide], the IC50 was determined as 29 nM. For `N[C@H]1CCCC[C@H]1NCCCCNc1cc(F)c(S(=O)(=O)Nc2nccs2)cc1Cl` [Ex 1-30, 4-[(4-{[(1R,2S)-2-aminocyclohexyl]amino}butyl)amino]-5-chloro-2-fluoro-N-1,3-thiazol-2-ylbenzenesulfonamide], the IC50 turned out to be 19 nM. Take `O=S(=O)(Nc1nccs1)c1cc(Cl)c(NCCCCNCC2CNC2)cc1F` [Ex 5-03, 4-((4-((azetidin-3-ylmethyl)amino)butyl)amino)-5-chloro-2-fluoro-N-(thiazol-2-yl)benzenesulfonamide]: the IC50 came to 34 nM.

Turning to `CNCCNCCCCNc1cc(F)c(S(=O)(=O)Nc2nccs2)cc1Cl` [Ex 5-04], the IC50 is 12 nM. Same read-out and setting: as for `O=S(=O)(Nc1nccs1)c1cc(Cl)c(NCCCCNC[C@H]2CCCN2)cc1F` [Ex 7-6, (R)-5-chloro-2-fluoro-4-((4-((pyrrolidin-2-ylmethyl)amino)butyl)amino)-N-(thiazol-2-yl)benzenesulfonamide], the figure is 34 nM. With `O=S(=O)(Nc1ncns1)c1cc(Cl)c(NCCCCNC[C@@H]2CCCN2)cc1F` [Ex 7-8, 5-chloro-2-fluoro-4-[(4-{[(2S)-pyrrolidin-2-ylmethyl]amino}butyl)amino]-N-1,2,4-thiadiazol-5-ylbenzenesulfonamide], the IC50 stood at 10 nM.

As to `O=S(=O)(Nc1ncc(Cl)s1)c1cc(Cl)c(NCCCCNC[C@@H]2CCCN2)cc1F` [Ex 7-9, 5-chloro-N-(5-chloro-1,3-thiazol-2-yl)-2-fluoro-4-[(4-{[(2S)-pyrrolidin-2-ylmethyl]amino}butyl)amino]benzenesulfonamide], the IC50 worked out at 29 nM. For the molecule `O=S(=O)(Nc1nccs1)c1cc(Br)c(NCCCCNC[C@@H]2CCCN2)cc1F` [Ex 7-10, 5-bromo-2-fluoro-4-[(4-{[(2S)-pyrrolidin-2-ylmethyl]amino}butyl)amino]-N-1,3-thiazol-2-ylbenzenesulfonamide], the IC50 stood at 16 nM. Take `O=S(=O)(Nc1ncc(F)s1)c1cc(Cl)c(NCCCCNC[C@@H]2CCCN2)cc1F` [Ex 7-11, 5-chloro-2-fluoro-N-(5-fluoro-1,3-thiazol-2-yl)-4-[(4-{[(2S)-pyrrolidin-2-ylmethyl]amino}butyl)amino]benzenesulfonamide]: the IC50 stood at 9.9 nM. In the case of `C[C@@H]1CN[C@H](CNCCCCNc2cc(F)c(S(=O)(=O)Nc3nccs3)cc2Cl)C1` [Ex 8-09, 5-chloro-2-fluoro-4-{[4-({[(2S,4S)-4-methylpyrrolidin-2-yl]-methyl}amino)butyl]amino}-N-1,3-thiazol-2-yl-benzenesulfonamide], the IC50 came out at 18 nM. The same measure, in the same setting: as for `C[C@H]1CC[C@@H](CNCCCCNc2cc(F)c(S(=O)(=O)Nc3nccs3)cc2Cl)N1` [Ex 8-10, 5-chloro-2-fluoro-4-{[4-({[(2S,5S)-5-methylpyrrolidin-2-yl]-methyl}amino)butyl]amino}-N-1,3-thiazol-2-yl-benzenesulfonamide], the figure is 16 nM; as for `O=S(=O)(Nc1nccs1)c1cc(Cl)c(NCCCCNC[C@@H]2C[C@H](C(F)(F)F)CN2)cc1F` [Ex 8-12, 5-chloro-2-fluoro-N-1,3-thiazol-2-yl-4-{[4-({[(2S,4S)-4-(trifluoromethyl)-pyrrolidin-2-yl]methyl}amino)butyl]amino}benzenesulfonamide], 21 nM. For the molecule `O=S(=O)(Nc1ncns1)c1cc(Cl)c(NCCCCNC[C@H]2CCN2)cc1F` [Ex 13-02, 4-[(4-{[(2R)-azetidin-2-yl-methyl]-amino}butyl)amino]-5-chloro-2-fluoro-N-1,2,4-thiadiazol-5-yl-benzene-sulfonamide], the IC50 came to 14 nM. Turning to `O=S(=O)(Nc1ncns1)c1cc(Cl)c(NCCCCNC[C@@H]2CCN2)cc1F` [Ex 14-04, 4-[(4-{[(2S)-azetidin-2-yl-methyl]-amino}butyl)amino]-5-chloro-2-fluoro-N-1,2,4-thiadiazol-5-ylbenzene-sulfonamide], the IC50 amounted to 14 nM. In the case of `C[C@H](N)CNCCCCNc1cc(F)c(S(=O)(=O)Nc2ncns2)cc1Cl` [Ex 15-05, 4-[(4-{[(2S)-2-aminopropyl]amino}butyl)amino]-5-chloro-2-fluoro-N-1,2,4-thiadiazol-5-ylbenzenesulfonamide], the IC50 was determined as 12 nM. Still for that read-out and setting: as for `O=S(=O)(Nc1ncns1)c1cc(Cl)c(NCCCCNC2CNC2)cc1F` [Ex 16-01, 4-{[4-(azetidin-3-ylamino)-butyl]-amino}-5-chloro-2-fluoro-N-1,2,4-thiadiazol-5-ylbenzenesulfonamide], the figure is 15 nM. Turning to `O=S(=O)(Nc1ncc(F)s1)c1cc(Br)c(NCCCCNC[C@H]2CCCCN2)cc1F` [Ex 16-04, 5-bromo-2-fluoro-N-(5-fluoro-1,3-thiazol-2-yl)-4-[(4-{[(2R)-piperidin-2-ylmethyl]amino}-butyl]amino]benzene-sulfonamide], the IC50 turned out to be 11 nM. Same read-out and setting: under `C[C@H](CN)NCCCCNc1cc(F)c(S(=O)(=O)Nc2nccs2)cc1Cl` [Ex 16-08, 4-[(4-{[(1R)-2-amino-1-methylethyl]-amino}butyl)-amino]-5-chloro-2-fluoro-N-1,3-thiazol-2-ylbenzenesulfonamide] stands 15 nM; under `O=S(=O)(Nc1ncns1)c1cc(Cl)c(NCCCCNC[C@H]2CCCCN2)cc1F` [Ex 16-15, 5-chloro-2-fluoro-4-[(4-{[(2R)-piperidin-2-yl-methyl]amino}butyl)-amino]-N-1,2,4-thiadiazol-5-yl-benzenesulfonamide], 5.1 nM. Still for that read-out and setting: under `O=S(=O)(Nc1ncc(F)s1)c1cc(Cl)c(NCCCCNCC[C@H]2CCCN2)cc1F` [Ex 16-18, 5-chloro-2-fluoro-N-(5-fluoro-1,3-thiazol-2-yl)-4-{[4-({2-[(2R)-pyrrolidin-2yl]-ethyl}amino)butyl]-amino} benzenesulfonamide] stands 18 nM; under `O=S(=O)(Nc1ncns1)c1cc(Cl)c(NCCCCN[C@@H]2CCNC2)cc1F` [Ex 16-19, 5-chloro-2-fluoro-4-({4-[(3R)-pyrrolidin-3-ylamino]-butyl}amino)-N-1,2,4-thiadiazol-5-ylbenzene-sulfonamide], 11 nM; under `C[C@H](CCN)NCCCCNc1cc(F)c(S(=O)(=O)Nc2nccs2)cc1Cl` [Ex 16-26, 4-[(4-{[(1R)-3-amino-1-methylpropyl]amino}butyl)amino]-5-chloro-2-fluoro-N-1,3-thiazol-2-ylbenzene-sulfonamide], 28 nM. On the same count and under the same terms, under `C[C@H](CCN)NCCCCNc1cc(F)c(S(=O)(=O)Nc2ncns2)cc1Cl` [Ex 16-29, 4-[(4-{[(1R)-3-amino-1-methylpropyl]amino}butyl)-amino]-5-chloro-2-fluoro-N-1,2,4-thiadiazol-5-yl-benzenesulfonamide] stands 56 nM; under `NCCNCCCCNc1cc(F)c(S(=O)(=O)Nc2ncns2)cc1Cl` [Ex 16-33, 4-({4-[(2-aminoethyl)-amino]butyl}amino)-5-chloro-2-fluoro-N-1,2,4-thiadiazol-5-ylbenzene-sulfonamide], 12 nM; under `C[C@@H](N)CCNCCCCNc1cc(F)c(S(=O)(=O)Nc2nccs2)cc1Cl` [Ex 16-34, 4-[(4-{[(3R)-3-aminobutyl]-amino}butyl)amino]-5-chloro-2-fluoro-N-1,3-thiazol-2-ylbenzene-sulfonamide], 29 nM.

In the case of `NCCCNCCCCNc1cc(F)c(S(=O)(=O)Nc2ncc(F)s2)cc1Cl` [Ex 16-35, 4-({4[(3-aminopropyl)amino]-butyl}amino)-5-chloro-2-fluoro-N-(5-fluoro-1,3-thiazol-2-yl)benzene-sulfonamide], the IC50 was 14 nM. Still for that read-out and setting: as for `O=S(=O)(Nc1ncc(F)s1)c1cc(Br)c(NCCCCN[C@@H]2CCNC2)cc1F` [Ex 16-36, 5-bromo-2-fluoro-N-(5-fluoro-1,3-thiazol-2-yl)-4-({4-[(3R)-pyrrolidin-3-yl-amino]butyl}amino) benzene-sulfonamide], the figure is 15 nM.

A word on the IC50: it is the concentration needed to halve the response being measured.

Source of the values: patent US10519147B2 (Merck Sharp & Dohme Corp., priority 2015, dated 2019).
